Measurements published in US20150224164A1, “TREATMENT OF AUTISM SPECTRUM DISORDERS USING GLYCYL-L-2-METHYLPROLYL-L-GLUMATIC ACID” (Neuren Pharmaceuticals Limited, priority 2013, published 2015).
“Also recorded” adds a separate entry of the source. Where a SMILES comes first, the peptide text is derived from it.

Key:
[1] = tested on: layer 5 cortical neurons of MeCP2-/y mice; assay: Whole-cell recordings of spontaneous EPSCs in acute brain slices (Example 10); type: in vivo, mouse; conditions: 20 mg/kg i.p. daily P15 to P28-P32; vs vehicle
Method: For the survival measurements, the nocturnal activity analysis and the immunoblot analysis, G-2-MePE (synthesised Albany Molecular Research Inc. (Albany, N.Y.) and supplied by Neuren Pharmaceuticals Limited) is administered daily via intra-peritoneal injections (20 mg/kg, vehicle=saline, 0.01% BSA). The treatment starts at P15 and is maintained throughout the course of the experiments. For intracellular physiology experiments, the mice are injected daily with G-2-MePE (20 mg/kg body weight, vehicle=saline, 0.01% BSA) for 2 weeks, from P15 to P28-P32 when they are used for acute slice preparation. For optical imaging experiments, mice are injected with G-2-MePE (20 mg/kg body weight, vehicle=saline, 0.01% BSA) daily from the day of the lid suture to the day of imaging. […]
Borosilicate pipettes (3-5 MΩ, WPI) are pulled using a Sutter P-80 puller (Sutter Instruments). Cells are visualized with an Achroplan 40× water-immersion lens with infrared-DIC optics (Zeiss) and detected with an infrared camera (Hamamatsu) projecting to a video monitor. […] Then in current clamp ˜10 pulses (500 ms, 40-140 pA at 10 pA increments), are applied to quantify evoked firing rates and cellular excitability. […] Analysis is performed using a custom software package written in Matlab, with all events detected according to automated thresholds and blindly verified for each event individually by the experimenter.

gastrointestinal cells = conditions: cited from earlier work
[2] = tested on: subjects with an Autism Spectrum Disorder; assay: Placebo-controlled crossover study in subjects with Autism Spectrum Disorder (Example 16); type: in vivo, human
Text: To determine whether G-2-MePE can treat symptoms of ASD, we carry out a study in human beings with ASD. Twenty subjects with an Autism Spectrum Disorder are recruited. Subjects are male and aged between 16 and 65 years (Mean=18.1 SD=3.4). All subjects have an IQ>60 and strict DSM-IV-TR diagnosis of Autistic Disorder or Asperger Disorder. Subjects also meet criteria for an Autism Spectrum Disorder according the ADI-R and ADOS-G instruments, and fulfill the proposed DSM-V criteria for and Autism Spectrum Disorder. Subjects are instructed that concomitant medications are to be stable for at least six weeks prior to study. Subjects receiving medication to treat signs of inattention are tested in the morning and instructed to take their medication in the afternoon. Subjects better treated with atypical anti-psychotic medications indicated for autism are excluded. Subjects are screened for known genetic disorders including and those with Fragile X Syndrome or tuberous sclerosis excluded. Subjects with uncontrolled epilepsy are excluded. The study is a double blind placebo-controlled crossover study with three phases. Subjects enter each phase of the crossover in a randomized order. In the test phases, subjects receive either placebo, 10 mg/kg T.I.D oral G-2-MePE for five days, or 30 mg/kg T.I.D. oral G-2-MePE. Each phase of the crossover is separated by a washout period of fourteen days. Subjects are tested at baseline using the following instruments: Wechsler IQ, Abberant Behavior Checklist Community Edition (ABC), […], Yale-Brown Obsessive Compulsive Scale (YBOCS) compulsion subscale, Social Responsiveness Scale (SRS), Clinical Global Impression of Severity (CGI-S) and their […] complete the Caregiver Strain Questionnaire (CSQ). Subjects are administered two tasks-the Reading the Mind in the Eyes Test-Revised (RMET) and an Eye Tracking (ET) task, as well as Clinical Global Impression of Improvement (CGI-I). Tasks commence two hours following administration of placebo or either dose of G-2-MePE. The RMET is a computer based task that assesses one's ability to read emotions from the eyes of subtle affective facial expressions and is a widely used test of emotion recognition in patients with autism (2001). Importantly, the RMET is capable of detecting improvement with even a single dose of a pharmacological agent (Guastella et al., 2010). Eye tracking issues are characteristic of patients with autism who spend less time looking at the eyes of photographs of human faces. Again, a single administration of a pharmacologic intervention can ameliorate eye tracking deficits in autism ([…] et al, 2010). Adverse events are also recorded using standard safety measures. Statistically, the effect of treatment with G-2-MePE is analysed by conducting a repeated analysis of covariance (ANCOVA) on the effect of treatment on change from baseline scores.

## C[C@@]1(C(=O)N[C@@H](CCC(=O)O)C(=O)O)CCCN1C(=O)CN [Example G-2-MePE, Glycyl-L-2-methylprolyl-L-glutamic acid] (HELM PEPTIDE1{G.[C[C@@]1(C(=O)[*:2])CCCN1[*:1]].E}$$$$V2.0)
[1]
  spontaneous EPSC amplitude: significantly larger in amplitude
Gastrointestinal cells
  degradation by gastrointestinal cells: not degraded
  uptake by gastrointestinal cells: taken up
[2]; 30 mg/kg T.I.D. oral
  percent correct responses on the RMET: increases the percent correct responses
[2]; 10 or 30 mg/kg T.I.D. oral
  Serious Adverse Events: No Serious Adverse Events
  adverse events / tolerability: no more adverse events than were present during treatment with placebo; also recorded: well tolerated
[2]; human, in vivo
  performance of the RMET test, overall: significant overall improvement
  time spent looking at the eye region in the ET test: significant overall improvement
